From US9023876B2, “Compounds and methods for regulating integrins” (Adhaere Pharmaceuticals, Inc., priority 2010, dated 2015) come the findings set out here.

For series [1], the target named is T1, integrin CD11b/CD18 (Homo sapiens, UniProt P11215).
T1 construct: expressed in transfected cells; host or cells: K562
Kind of series: K562 cell adhesion assay, K562 CD11b/CD18 cells on immobilized fibrinogen (Fg). The format is cell-based. The procedure:
Cell adhesion assays with immobilized ligands were performed as previously described. Assays with all different K562 cell lines (K562, K562 CD11b/CD18 and K562 E320A) were performed in an identical fashion. Briefly, 384-well Highbind microtiter plates were coated with a 30 μL solution of ligand in Phosphate Buffered Saline, pH 7.4 containing 1 mM each of Ca^2+ and Mg^2+ ions (PBS^++) overnight at 4° C. Ligand Fg was coated at a concentration of […] and iC3b at […]. Heterodimer specific mAb IB4 (ascites) was coated at a 1:100 dilution. Subsequently, the non-specific sites in the wells were blocked by incubation with 1% non-fat milk in Tris Buffered Saline (TBS), pH 7.4, at room temperature for 1 h, except for the neutrophil assay, where the wells were blocked with TBS containing 1% gelatin. Next, the wells were washed three times with TBS. K562 cells were suspended in the assay buffer (TBS containing 1 mM each of Ca^2+ and Mg^2+ ions (TBS^++)) and were transferred to the ligand-coated wells (30,000 cells/well). Stock solution of the leukadherin family of small molecule agonists was prepared by dissolving the compounds in DMSO at a concentration of 2-10 mM. Final concentration of DMSO in the assay was approximately 1%. […] Cells remaining adherent were fixed using formaldehyde and were quantitated using imaging microscopy, as previously described. […]

Series [2] addresses T1, integrin CD11b/CD18. The series is described as follows: Flow cytometry, binding of activation sensitive mAb24 to K562 CD11b/CD18 cells. The format is cell-based. On the procedure: Flow cytometric analysis of K562 cells for integrin CD11b/CD18 cell surface expression was performed using published protocols. Briefly, cells were suspended in the assay buffer (TBS containing 1 mM each of Ca^2+ and Mg^2+ ions (TBS^++) and 0.1% BSA). […] Subsequently, the cells were washed three times with the assay buffer and incubated with goat anti-mouse-APC (1 mg/ml, Invitrogen) for 20 min at 4° C. Cells were washed twice with the assay buffer and analyzed using FACSCaliber flow cytometer (BD Biosciences, CA), counting at least 10,000 events. Data was analyzed using the CellQuest software (BD Biosciences). Assays were performed in triplicate and the data shown is from one of at least three independent experiments.
To identify binding site of LA1-3, which are predicted to bind the ligand-binding αA (or α1) domain in CD11b/CD18 [33, 39, 76], we generated K562 cells stably expressing mutant integrin CD11bE320A/CD18 (K562 E320A). The highly conserved residue E320 in the linker following the activation-sensitive α7-helix in the CD11b A-domain (αA-domain) acts as an endogenous ligand of the CD18 vWFA-domain (βA- or I-domain). The E320A mutation abolishes agonist Mn^2+-ion mediated increase in ligand-binding by CD11b/CD18. However, stabilization of αA in a high-affinity conformation by additional activating mutations overcomes this deficit and induces ligand binding in the E320A mutant. […]

Series [3] has as its system K562 CD11b/CD18 cells. The series is described as follows: Cell viability assay (MTS). Particulars: 24 h; concentrations as high as 50 μM. The format is cell-based. The procedure:
Cell viability assay was performed as described. Briefly, K562 CD11b/CD18 cells (10,000/well) were incubated in 96 well plates (Corning, Corning, N.Y.) with increasing amounts of indicated compound for 24 h. The number of viable cells after 24 h was determined by using MTS reagent according to manufacturers protocol (Promega, Madison, Wis.) and using Spectramax M5 spectrophotometer (Molecular Devices) for reading of the assay plates. Data presented is representative of at least two independent experiments.

Series [4] has as its system WT B6 mice. Kind of series: Thioglycollate-induced peritonitis, WT mice. The format is in vivo, mouse. To be noted: vs vehicle. On the procedure:
Thioglycollate-induced peritonitis was performed as previously described, using 8-10 week old WT B6 and CD11b^−/− B6 mice. Leukadherin agonists were administered thirty min prior to intra peritoneal (i.p.) thioglycollate (3%) injection. LA1 and LA2 ([…] of 20 mM solution in saline) were administered intra venously (i.v.). LA3 was administered i.p. (1 mL of 20 mM solution in saline). To evaluate peritoneal neutrophil recruitment, […], the peritoneal lavage was collected and the number of emigrated neutrophils was quantified using double positive cells for GR-1 and Mac-1 staining as described.
To determine the effects of LA1-3 on inflammatory responses in vivo, we monitored their effects on neutrophil recruitment upon acute thioglycollate-induced peritonitis in mice.

Regarding `O=C(O)c1ccc(-c2ccc(/C=C3\SC(=S)N(Cc4ccccc4)C3=O)o2)cc1` [LA1], the EC50 in series [1] (K562 CD11b/CD18 cells, immobilized Fg, read-out: EC50 (effective concentration for 50% increase in adhesion), CD11b/CD18 dependent cell adhesion to Fg) turned out to be 4 µM. In series [1] (cell-based adhesion assay), the “relative affinity for CD11b/CD18 compared with IMB-10” value is listed as “higher affinity”. For the same molecule, the “binding of activation sensitive mAb24 to K562 CD11b/CD18 cells” value in series [2] is on record as “increase”. Moreover, in series [3], the “in vitro cytotoxicity to K562 cells” value is on record as “no cytotoxicity”. Besides, in series [4] (TGC-induced peritonitis), the “peritoneal neutrophil accumulation at 4 h and 12 h” value is “significantly reduced”; the “peritoneal neutrophils after 24 h” value is on record as “comparable numbers”. Moreover, in series [4] (WT mice, given 30 min prior to thioglycollate, 4 h), the “reduction of peritoneal neutrophil accumulation” value turned out to be 40%.
